# In patent US20260144820A1, “ACTIVATION OF RESIDENT MEMORY T CELLS FOR CANCER IMMUNOTHERAPY” (priority 2015, published 2026):
# What was measured:
# VSV-Ova specific TRM = system: VSV-Ova specific TRM; set-up: species or system mice; conditions: mouse, in vivo
# [1] = system: virus-specific TRM within skin tumors; set-up: species or system mice; conditions: mouse, in vivo
sequence,measurement,setting,value
SIINFEKL,reactivation of virus-specific TRM within skin tumors,VSV-Ova specific TRM,can become reactivated
same,recruitment of CD8 T cells and NK cells to tumors,[1],recruit CD8 T cells and NK cells to the tumors
